Measurements: patent publication US12150940B2, “WASp-protecting small molecules, compositions, methods and uses thereof in the treatment of innate and acquired immune-related disorders or conditions” (BAR ILAN UNIVERSITY, priority 2016, dated 2024)

Key:
Jurkat T cells = assay: Lymphocyte migration on ICAM-1/SDF-1α-coated cover glasses; format: cell-based, human; settings: tracked over 20 min, mean ± SE
Procedure: Jurkat T cells were pretreated with DMSO or the indicated WASp-binding SMCs, and cell migration on ICAM-1/SDF-1α-coated cover glasses was tracked over a 20-min period, as described in Experimental procedures. Each line in FIG. 10A represents one cell. The tracks of five representative cells from each treatment are presented.
Error bars represent the SE from the mean. P values versus DMSO-treated control cells are presented and were calculated by two-tailed Student's t-test.
Approximately 1×10^5 lymphocytes were seeded over chambered coverslips (LabTek) pre-coated with 6 μg/ml ICAM-1 and 2 μg/ml SDF-1α. Cells were incubated at 37° C., 5% CO2 and DIC images were acquired with the Zeiss Observer Z1 inverted microscope every 5 s for 20 min under a 20× objective lens using Zen software. The random movement (Displacement and velocity) of the cells was automatically tracked and analyzed using TrackMate plugin of ImageJ software. An individual trace was assigned to each of the analyzed cells.
A common theme of active lymphocytes is their high migratory ability. This enables them to move within tissues and reach and engage target cells (Burkhardt et al, 2008). Because WASp plays a role in cellular motility, the ability of WASp-binding SMCs to effectively enhance the migration of lymphocytes was tested. The random movement of SMC-treated or control cells was automatically tracked and analyzed using live microscopy, as described in Experimental procedures.

WIP-WASp interaction = biological target: T1, WIP-WASp interaction (Homo sapiens, UniProt P42768, K230R/R34Q); assay: FRET analysis of WIP-WASp interaction in activated T-cells expressing CFP-WASp and YFP-WIP; format: cell-based; settings: anti-CD3 stimulatory coverslips, fixed after 5 min; mean ± SE
T1 construct: expressed in transfected cells
T1 sequence (P42768 whole entry R34Q/K230R): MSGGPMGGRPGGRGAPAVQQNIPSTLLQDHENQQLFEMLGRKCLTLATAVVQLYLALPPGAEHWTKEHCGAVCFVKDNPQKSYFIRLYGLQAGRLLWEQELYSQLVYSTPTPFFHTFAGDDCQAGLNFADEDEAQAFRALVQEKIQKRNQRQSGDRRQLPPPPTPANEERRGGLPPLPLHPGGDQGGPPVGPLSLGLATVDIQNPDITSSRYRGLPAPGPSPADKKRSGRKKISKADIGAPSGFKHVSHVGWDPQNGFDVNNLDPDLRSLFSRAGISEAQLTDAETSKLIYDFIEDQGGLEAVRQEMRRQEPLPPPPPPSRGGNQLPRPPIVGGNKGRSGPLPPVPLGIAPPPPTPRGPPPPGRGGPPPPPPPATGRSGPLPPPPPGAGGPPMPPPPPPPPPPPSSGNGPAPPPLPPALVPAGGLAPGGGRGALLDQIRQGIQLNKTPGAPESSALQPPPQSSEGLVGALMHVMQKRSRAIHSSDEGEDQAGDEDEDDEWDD
T1 sequence (O43516 whole entry partner): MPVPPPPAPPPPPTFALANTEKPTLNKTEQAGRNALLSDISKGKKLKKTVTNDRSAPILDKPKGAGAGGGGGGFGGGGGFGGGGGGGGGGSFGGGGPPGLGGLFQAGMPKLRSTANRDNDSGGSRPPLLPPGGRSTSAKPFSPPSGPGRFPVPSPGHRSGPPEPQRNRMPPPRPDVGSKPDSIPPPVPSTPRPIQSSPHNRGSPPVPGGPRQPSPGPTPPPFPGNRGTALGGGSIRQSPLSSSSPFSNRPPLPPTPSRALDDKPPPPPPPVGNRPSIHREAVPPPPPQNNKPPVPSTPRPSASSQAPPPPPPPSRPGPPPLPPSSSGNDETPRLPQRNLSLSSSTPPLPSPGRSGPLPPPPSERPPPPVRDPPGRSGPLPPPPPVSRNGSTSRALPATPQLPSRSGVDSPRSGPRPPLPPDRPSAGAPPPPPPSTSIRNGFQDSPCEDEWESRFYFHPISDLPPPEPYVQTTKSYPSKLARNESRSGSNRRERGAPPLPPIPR
Procedure: FIG. 13A: Jurkat T cells stably expressing CFP-WASp and YFP-WIP were treated with WASp-binding SMC #6, SMC #30, SMC #33, SMC #34 or control. The cells were then plated on stimulatory coverslips (coated with an anti-CD3 antibody), and fixed after 5 min. Cells were imaged by confocal microscope, and FRET efficiency was measured by the donor-sensitized acceptor emission technology (see Experimental procedures for details).
FIG. 13B: graph summarizing the percentage FRET efficiency in cells plated on the stimulatory coverslips, with the indicated treatment. Data are from four independent experiments. Error bars represent the SE from the mean. P values were calculated by two-tailed Student's t-test.
Spreading assays were performed as previously described (Fried et al, 2014; Barda-Saad 2005). Briefly, T cells (2×10^6 cells/ml) were seeded on the bottom of chambered cover glasses (LabTek) that were pre-coated with anti-CD3 stimulatory monoclonal antibodies (10 μg/ml). The cells were incubated in imaging buffer [RPMI without phenol red containing 10% fetal calf serum (FCS) and 25 mM HEPES] at 37° C., 5% CO2, for the times indicated in the figure legends. Cells were fixed for 25 min with 4% paraformaldehyde in phosphate-buffered saline (PBS) and then were washed three times with PBS.
Double-color FRET was performed as described previously (Barda-Saad et al, 2005; Pauker, 2011, Pauker, 2012). […] The non-FRET components were calculated and removed with calibration curves derived from images of single-labeled cells containing CFP or YFP, as previously described (Barda-Saad et al, 2005). […] Bleed-through components were calculated as a function of the intensity of the expressed fluorescent proteins with data gathered from single-labeled cell lines. By using the intensity measured pixel by pixel through the different filter sets, as well as cross-talk elements that were isolated from the control, single-labeled cells, the measured FRET was corrected and the actual FRET efficiency at every pixel was determined. The relative FRET efficiency (FRETeff) was calculated on a pixel-by-pixel basis with the following equation: FRETeff=FRETcorr/(FRETcorr+donor)×100%, where FRETcorr is the pixel intensity in the corrected FRET image, and donor is the intensity of the corresponding pixel in the appropriate donor channel image. To increase the reliability of the calculations and to prevent low-level noise from distorting the calculated ratio, the inventors excluded pixels below 50 intensity units, as well as saturated pixels from the calculations, and set their intensities to zero. […] The FRET efficiency in the negative control system was measured and calculated in the same manner as that in the main experiment. […]

PBMCs = assay: Lymphocyte activation in PBMCs (CD69 and activated LFA-1, flow cytometry); format: cell-based, human; settings: PBMCs stimulated with PMA and Ionomycin, vs control
Procedure: Figures show 1×10^6 PBMC cells/ml stimulated with PMA and Ionomycin that were treated with DMSO or WASp-binding SMCs. After incubation, the cells were stained with PE-Cy5™-conjugated mouse anti-human CD69 and lymphocyte activation was measured by flow-cytometry as described in the Experimental procedures. Histograms of DMSO versus SMC #6 (FIG. 8A), SMC #30 (FIG. 8B), SMC #33 (FIG. 8C), and SMC #34 (FIG. 8D) are presented and represent three independent experiments.
After incubation, the cells were stained with anti-activated LFA-1 antibody (KIM127), followed by staining with Alexa488-Fluor goat anti-mouse IgG1 secondary antibody, and lymphocyte activation was measured by flow-cytometry as described in the Experimental procedures. Histogram of negative control versus SMC #6 is presented.
PBMCs or Jurkat cells (about 3×10^5 cells) were incubated for 4 h, at 37° C. with 50 ng/ml PMA and 250 ng/ml lonomycin, or 40 ng/ml PMA and 6 μM Ionomycin, respectively, or left untreated. After incubation, the cells were collected and stained with 1 μg/ml anti-active human LFA-1 antibody (purified from KIM127 hybridoma sup, ATCC Cat #: CRL-2838, Sigma) for 30 min in 37° C., followed by staining with Alexa488-Fluor goat anti-mouse IgG1 secondary antibody (Molecular Probes, Cat #: A-21121), 30 min on ice. Cells were then co-stained with PE-Cy5™-conjugated mouse anti-human CD69 (BD Pharmingen, Cat #: 555532) to measure lymphocyte activation.
Lymphocyte activation is a hallmark of a normal immune response. To test whether treatment with WASp-binding SMCs could upregulate lymphocyte activation, freshly-isolated PBMCs were incubated with SMCs or control (solvent only) and stimulated with PMA and lonomycin. The cells were then stained with two different antibodies, which recognize two lymphocyte activation markers, CD69 and an epitope exposed at the active conformation of the integrin LFA-1 (KIM127). Both were detected by flow-cytometry.

average FRET efficiency (WIP-WASp interaction) [%] | Compound | mean cell displacement (Jurkat T cells) | lymphocyte activation (CD69, activated LFA-1) (PBMCs)
22.7±1.4 | CC(=O)N[C@H]1C[C@@H](c2ccc3c(c2)nnn3C)O[C@@H](c2ccc(Cl)cc2)C1 [SMC #6, N-[(2R,4R,6S)-2-(4-chlorophenyl)-6-(1-methylbenzotriazol-5-yl)oxan-4-yl]acetamide] | 29.52±2.96 | upregulation of lymphocyte activation
21.4±1.4 | Cc1ccccc1N(CC(=O)NCc1ccccc1)C(=O)CCC(=O)Nc1nccs1 [SMC #33, N′-[2-(benzylamino)-2-oxoethyl]-N′-(2-methylphenyl)-N-(1,3-thiazol-2-yl)butanediamide] | 32.92±4.28 | upregulation of lymphocyte activation

Compound | average FRET efficiency (WIP-WASp interaction) [%] | mean cell displacement (Jurkat T cells) | lymphocyte activation (CD69, activated LFA-1) (PBMCs)
CC1CCCC(C)N1C(=O)CSc1nnc(COc2cccc3cccnc23)o1 (stereo not drawn) [SMC #34, 1-(2,6-dimethylpiperidin-1-yl)-2-[[5-(quinolin-8-yloxymethyl)-1,3,4-oxadiazol-2-yl]sulfanyl]ethanone] | 23.8±1.1 | 48.91±6 | upregulation of lymphocyte activation
